What was measured:
Type in all cases: in vitro ADME
[1] = Plasma stability assay, human plasma; conditions: for Plasma Stability 240 min hum [% remain.]: human plasma, 10 μM, 37° C.; for half-life at 10 μM: human, plasma
Outline: (§1)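 Compounds at 10 μM were incubated at 37 °C in triplicate in sodium citrate-stabilized plasma (human, or pooled mixed-gender CD-1 mouse). Samples taken at 0–240 min were acetonitrile-quenched and analyzed by HPLC/MS/MS. Remaining peak area as % of t0 gave endpoint stability (%) and half-life (min).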

[2] = Plasma stability assay, CD-1 mouse plasma; conditions: for Plasma Stability 240 min mouse/(rat) [% remain.]: CD-1 mouse plasma, 10 μM, 37° C.; for half-life at 10 μM: both sexes, CD-1, mouse, plasma
Outline: as §1

[3] = Metabolic stability assay, CD-1 mouse microsomes; conditions: CD-1 mouse microsomes, 10 μM, 37° C.; for half-life at 10 μM: both sexes, 1 mg/ml protein, read-out: Metabolic Stability T ½ [min] mouse/(rat)
Outline: (§2)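 Pooled human (50 donors, mixed gender) or CD-1 mouse microsomes at 1 mg/mL protein, 10 μM compound, 100 mM potassium phosphate with NADPH-regenerating system, 37 °C in duplicate. Samples at 0, 5, 10, 20, 60 min analysed by HPLC/MS/MS; turnover as % of 0-min value and T½ (min) calculated.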

[4] = Metabolic stability assay, human liver microsomes; conditions: human microsomes, 10 μM, 37° C.; for half-life at 10 μM: both sexes, liver microsomes, 1 mg/ml protein, read-out: Metabolic Stability T ½ [min] hum
Outline: as §2

Row | Plasma Stability 240 min hum [% remain.] [1] [% remain.] | half-life at 10 μM [1] [h] | Plasma Stability 240 min mouse/(rat) [% remain.] [2] [% remain.] | half-life at 10 μM [2] [h] | Metabolic Stability 60 min mouse/(rat) [% remain.] [3] [% remain.] | half-life at 10 μM [3] [min] | half-life at 10 μM [4] [min] | Metabolic Stability 60 min hum [% remain.] [4] [% remain.] | Compound
1 | 100 | > 4 | 67 | > 4 | 0 | 3 | 7 | 1 | C[C@H]1COc2cccc(c2)-c2cccc(c2)C(=O)N(C)[C@H](C(=O)NCc2cccc3ccccc23)CCC(=O)N1 [Ex. 74, (9S,14S)-9,15-dimethyl-N-(1-naphthylmethyl)-11,16-dioxo-7-oxa-10,15-diazatricyclo[15.3.1.1^2,6]docosa-1(21),2(22),3,5,17,19-hexaene-14-carboxamide]
2 | 93 | > 4 | 55 | > 4 | 48 | 53 | 21 | 12 | C[C@H]1COc2cccc(c2)-c2cccc(c2)C(=O)N(C)[C@H](C(=O)NCc2cccnc2)CCC(=O)N1 [Ex. 75, (9S,14S)-9,15-dimethyl-11,16-dioxo-N-(3-pyridinylmethyl)-7-oxa-10,15-diazatricyclo[15.3.1.1^2,6]docosa-1(21),2(22),3,5,17,19-hexaene-14-carboxamide]
3 | 96 | > 4 | 85 | > 4 | 75 | > 60 | 44 | 41 | COCCNC(=O)[C@@H]1CCC(=O)N[C@@H](C)COc2cccc(c2)-c2cccc(c2)C(=O)N1C [Ex. 77, (9S,14S)-N-(2-methoxyethyl)-9,15-dimethyl-11,16-dioxo-7-oxa-10,15-diazatricyclo[15.3.1.1^2,6]docosa-1(21),2(22),3,5,17,19-hexaene-14-carboxamide]
4 | 100 | > 4 | 86 | > 4 | 92 | > 60 | > 60 | 99 | C[C@H]1COc2cccc(c2)-c2cccc(c2)C(=O)N(C)[C@H](C(=O)NCC(F)(F)F)CCC(=O)N1 [Ex. 78, (9S,14S)-9,15-dimethyl-11,16-dioxo-N-(2,2,2-trifluoroethyl)-7-oxa-10,15-diazatricyclo[15.3.1.1^2,6]docosa-1(21),2(22),3,5,17,19-hexaene-14-carboxamide]
5 | 100 | > 4 | 60 | > 4 | 73 | > 60 | > 60 | 95 | C[C@H]1COc2cccc(c2)-c2cccc(c2)C(=O)N(C)[C@H](C(=O)NC2CC2)CCC(=O)N1 [Ex. 79, (9S,14S)-N-cyclopropyl-9,15-dimethyl-11,16-dioxo-7-oxa-10,15-diazatricyclo[15.3.1.1^2,6]docosa-1(21),2(22),3,5,17,19-hexaene-14-carboxamide]
6 | 90 | > 4 | 84 | > 4 | 19 | 24 | 19 | 6 | CC(C)CNC(=O)[C@@H]1CCC(=O)N[C@@H](C)COc2cccc(c2)-c2cccc(c2)C(=O)N1C [Ex. 80, (9S,14S)-N-isobutyl-9,15-dimethyl-11,16-dioxo-7-oxa-10,15-diazatricyclo [15.3.1.1^2,6]docosa-1(21),2(22),3,5,17,19-hexaene-14-carboxamide]
7 | 88 | > 4 | 100 | > 4 | 97 | > 60 | > 60 | 100 | C[C@H]1COc2cccc(c2)-c2cccc(c2)C(=O)N(C)[C@H](C(=O)NCCO)CCC(=O)N1 [Ex. 81, (9S,14S)-N-(2-hydroxyethyl)-9,15-dimethyl-11,16-dioxo-7-oxa-10,15-diazatricyclo[15.3.1.1^2,6]docosa-1(21),2(22),3,5,17,19-hexaene-14-carboxamide]
8 | 85 | > 4 | 93 | > 4 | 96 | > 60 | > 60 | 85 | C[C@H]1COc2cccc(c2)-c2cccc(c2)C(=O)N(C)[C@H](C(=O)NCC(=O)O)CCC(=O)N1 [Ex. 83, 2-({[(9S,14S)-9,15-dimethyl-11,16-dioxo-7-oxa-10,15-diazatricyclo[15.3.1.1^2,6]docosa-1(21),2(22),3,5,17,19-hexaen-14-yl]carbonyl}amino)acetic acid]
9 | 99 | > 4 | 56 | > 4 | 71 | > 60 | > 60 | 97 | C[C@H]1COc2cccc(c2)-c2cccc(c2)C(=O)N(C)[C@H](C(=O)NCCN(C)C)CCC(=O)N1 [Ex. 84, (9S,14S)-N-[2-(dimethylamino)ethyl]-9,15-dimethyl-11,16-dioxo-7-oxa-10,15-diazatricyclo[15.3.1.1^2,6]docosa-1(21),2(22),3,5,17,19-hexaene-14-carboxamide]
10 | 100 | > 4 | 88 | > 4 | 80 | > 60 | > 60 | 100 | C[C@H]1COc2cccc(c2)-c2cccc(c2)C(=O)N(C)[C@H](C(=O)NCCCN2CCCC2)CCC(=O)N1 [Ex. 85, (9S,14S)-9,15-dimethyl-11,16-dioxo-N-[3-(1-pyrrolidinyl)propyl]-7-oxa-10,15-diazatricyclo[15.3.1.1^2,6]docosa-1(21),2(22),3,5,17,19-hexaene-14-carboxamide]
11 | 100 | > 4 | 90 | > 4 | 63 | 60 | 27 | 17 | C[C@H]1COc2cccc(c2)-c2cccc(c2)C(=O)N(C)[C@H](C(=O)N2CCOCC2)CCC(=O)N1 [Ex. 87, (9S,14S)-9,15-dimethyl-14-(morpholinocarbonyl)-7-oxa-10,15-diazatricyclo [15.3.1.1^2,6]docosa-1(21),2(22),3,5,17,19-hexaene-11,16-dione]
